Data on 12 molecules can be found in patent publication EP0304063B1, “Quinoline type mevalonolactones” (NISSAN CHEMICAL INDUSTRIES LTD., priority 1987, dated 1989).

The mortality is the percentage killed. Higher therefore signals a strong lethal effect.

One data set has as its system cholesterol biosynthesis in vivo. Nature of the data set: Test C: Inhibition of cholesterol biosynthesis in vivo. Also on record: species or system Male Sprague-Dawley rats. The note with it: oral administration of 0.05 mg/kg, relative to the control group, rats.
With `O=C(O)CC(O)CC(O)/C=C/c1c(C2CC2)nc2ccccc2c1-c1ccc(F)cc1` (stereo not drawn) [Compound I-520], the “percent decrease of counts” value was determined as 55%.

The data set is the same for the next values; noted with them: oral administration of 10 mg/kg, relative to the control group, rats.
Regarding `CC[C@H](C)C(=O)O[C@H]1C[C@H](O)C=C2C=C[C@H](C)[C@H](CC[C@@H](O)C[C@@H](O)CC(=O)O)[C@H]21` [CS-514, reference compound], the “percent decrease of counts” value worked out at 55%.

Tested on in a further data set: not listed separately
The data set is described as follows: Test D: Acute toxicity. The note with it: mouse, in vivo, po; orally administered 1000 mg/kg, 0.5% CMC suspension, ICR male mice, after seven days. How it is done: A 0.5% CMC suspension of a test compound was orally administered to ICR male mice (group of three mice). The acute toxicity was determined based on the mortality after seven days. With compound I-57, I-58, I-59, I-511, I-512, I-513, I-514, I-515, I-517 and I-523 of the present invention, the mortality was 0% even when they were orally administered in an amount of 1000 mg/kg.
`CC(C)c1nc2ccccc2c(-c2ccc(C(F)(F)F)cc2)c1/C=C/C(O)CC(O)CC(=O)O` (stereo not drawn) [Compound I-513]: the mortality at 168 h was 0%.
As to `CCc1nc2ccccc2c(-c2ccc(F)cc2)c1/C=C/C(O)CC(O)CC(=O)O` (stereo not drawn) [Compound I-517], the mortality at 168 h amounted to 0%.
`CC(C)c1nc2ccccc2c(-c2ccc(Cl)cc2)c1/C=C/C(O)CC(O)CC(=O)O` (stereo not drawn) [Compound I-59] came in with a mortality at 168 h of 0%.
The molecule `CC(C)c1nc2ccccc2c(-c2ccccc2F)c1/C=C/C(O)CC(O)CC(=O)O` (stereo not drawn) [Compound I-57] came in with a mortality at 168 h of 0%.
Same read-out and setting: for `Cc1cc(-c2c(/C=C/C(O)CC(O)CC(=O)O)c(C(C)C)nc3ccccc23)ccc1F` (stereo not drawn) [Compound I-514] the value was 0%; for `Cc1ccc2c(-c3ccccc3)c(/C=C/C(O)CC(O)CC(=O)O)c(C(C)C)nc2c1` (stereo not drawn) [Compound I-58], 0%.
With `Cc1ccc(-c2c(/C=C/C(O)CC(O)CC(=O)O)c(C(C)C)nc3ccccc23)cc1` (stereo not drawn) [Compound I-511], the mortality at 168 h was 0%.
`CC(C)c1nc2ccc(Cl)cc2c(-c2ccccc2Cl)c1/C=C/C(O)CC(O)CC(=O)O` (stereo not drawn) [Compound I-512] registered a mortality at 168 h of 0%.
Still for that read-out and setting: for `O=C(O)CC(O)CC(O)/C=C/c1c(-c2ccccc2)nc2ccc(Cl)cc2c1-c1ccccc1` (stereo not drawn) [Compound I-523] the value was 0%.
The same measure, in the same setting: the result for `Cc1cc(C)cc(-c2c(/C=C/C(O)CC(O)CC(=O)O)c(C(C)C)nc3ccccc23)c1` (stereo not drawn) [Compound I-515] reads 0%.
